Data as given in patent US8048884B2, “Substituted piperazinyl pyrazines and pyridines as 5-HT7 receptor antagonists” (Eli Lilly and Company, priority 2007, dated 2011).
Several values for one entry are separate records, joined by “and”; a condition that tells them apart may be missing. Equal values may be shown once. Where a name gives a salt, the structure may show the parent alone.

How the values were obtained:
[1] = biological target: T1, 5-HT7 receptor (Homo sapiens, UniProt P34969); test: Functional antagonist assay: measurement of cAMP formation; type: cell-based; conditions: 5-HT7-expressing AV-12 cells; for Kb: antagonist potency
T1 construct: expressed in transfected cells
T1 sequence (P34969 whole entry): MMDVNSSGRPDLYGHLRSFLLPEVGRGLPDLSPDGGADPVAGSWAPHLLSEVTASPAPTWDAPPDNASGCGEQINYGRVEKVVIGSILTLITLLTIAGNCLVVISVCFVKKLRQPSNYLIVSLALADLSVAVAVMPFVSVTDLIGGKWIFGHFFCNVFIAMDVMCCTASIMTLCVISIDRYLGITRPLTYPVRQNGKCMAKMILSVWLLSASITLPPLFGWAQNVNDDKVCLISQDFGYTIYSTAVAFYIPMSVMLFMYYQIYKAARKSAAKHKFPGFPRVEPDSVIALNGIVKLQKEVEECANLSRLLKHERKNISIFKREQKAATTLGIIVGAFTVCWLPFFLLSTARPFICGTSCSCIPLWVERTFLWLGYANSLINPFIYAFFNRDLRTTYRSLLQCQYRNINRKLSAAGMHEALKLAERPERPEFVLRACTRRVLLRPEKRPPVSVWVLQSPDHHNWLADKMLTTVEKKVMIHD
Protocol: For cAMP functional assays, the 5-HT7-expressing cells from above are grown in 150 cm^2 flasks and processed essentially as follows. The media is aspirated from the flasks and cells are washed with 1 mL PBS. The cells are released from monolayer with enzyme free cell dissociation solution (Specialtymedia CAT#S-004-B, www.Chemicon.com) and resuspended in complete media. A sample of the cells is counted and the remainder is centrifuged as above for 3 min. The resulting cell pellet is resuspended in PBS at a concentration of 1×10^6 cells per mL and used directly in the cAMP assay as described.
The 5-HT7 receptor is functionally coupled to a G-protein as measured by the ability of serotonin and serotonergic drugs to stimulate cAMP production in CHO cells transfected with the 5-HT7 receptor. (Ruat, et al., Proceedings of the National Academy of Sciences (USA), 90:8547-8551, 1993.) Accordingly, functional receptor activity can be measured by measuring adenylate cyclase activity using a commercially available cell-based, homogeneous, time resolved fluorescence assay kit, as for example the kit produced by Cisbio-US, Inc. (Bedford, Mass.). Essentially, and using the protocol and reagents provided by the manufacturer, approximately 20,000 human 5-HT7 receptor-expressing AV-12 cells (as described above) are used with test compound dose concentrations in the range described for the binding assay. […] A cAMP standard curve is also run in every experiment. After the assay plates are read in an Envision™ instrument (Perkin-Elmer, Wellesley Mass.), the data are normalized to the standard curve and converted to percent inhibition for data analysis as described above for the receptor binding assay results. The Kb (nM) is calculated as a measure of the antagonist potency of the compound. Preferred compounds are those having percent inhibition>75%. Still other preferred compounds are those having Kb<50 nM.

[2] = biological target: T1, 5-HT7 receptor; test: 5-HT7 receptor affinity: [3H]5-HT radioligand binding assay; conditions: [3H]5-HT competition, membranes of AV-12 cells
Protocol: Membranes for affinity and antagonist activity assays are prepared essentially as follows. AV-12 cells, stably expressing the 5-HT7 receptor, are grown as a monolayer in 5×T-150 flasks in DMEM/F12 (3:1) 5% FBS, 20 mM HEPES, […] geneticin, 50 mg/mL tobramycin. After growing to 90% confluence the media is removed and replaced with Hybritech media (a low calcium version of DMEM/F12 media having 11 mg/L calcium) containing 2% horse serum, […] dextran sulfate, 1 mg/mL nucellin, 1 mg/mL human transferrin (partially iron saturated), 50 mg/mL tobramycin, 20 mM HEPES, […] geneticin, 0.04% pluronic F68. The cells are grown overnight to condition the media. The next morning the conditioned media (−150 mL total) is removed and set aside in a sterile container. The cells are trypsinized and collected in the conditioned media. […]
To prepare membranes, the above pellets are resuspended in ice-cold Tris buffer (20 mM Tris HCl, pH 7.4 at 23° C., 5 mM EDTA) and homogenized with a Wheaton tissue grinder. […] Protein concentrations are determined by the method of Bradford. […]
(§1) [^3H] […] The reactions are incubated at room temperature for 3 hr. and then counted in a Trilux Microbeta™ scintillation counter to detect receptor-bound radioligand. Binding data is analyzed by computer-assisted 4 parameter fit analysis (ID Business Solutions Ltd, Guildford, Surrey, UK). […]

[3] = biological target: T2, 5-HT1A (Homo sapiens, UniProt P08908); test: Radioligand binding assay, 5-HT1A subtype
T2 construct: expressed in transfected cells
T2 sequence (P08908 1-422): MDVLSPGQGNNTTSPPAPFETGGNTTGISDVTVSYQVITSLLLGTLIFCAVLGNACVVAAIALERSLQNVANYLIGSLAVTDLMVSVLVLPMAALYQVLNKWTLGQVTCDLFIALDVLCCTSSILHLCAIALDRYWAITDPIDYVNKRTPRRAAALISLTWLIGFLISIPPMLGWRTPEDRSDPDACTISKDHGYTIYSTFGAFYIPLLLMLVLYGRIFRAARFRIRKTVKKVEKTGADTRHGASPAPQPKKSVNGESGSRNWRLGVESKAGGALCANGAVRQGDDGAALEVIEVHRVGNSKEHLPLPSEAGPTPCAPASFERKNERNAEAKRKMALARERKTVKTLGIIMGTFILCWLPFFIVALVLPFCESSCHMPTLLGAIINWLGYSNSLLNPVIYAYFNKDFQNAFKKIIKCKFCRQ
Protocol: as §1
(§2) Affinity for other serotonin receptor subtypes as well as for alpha 1 & 2 adrenergic receptors can readily be determined by modification of the above described radioligand receptor binding assay using membranes derived from cells stably expressing the desired receptor subtype including the 5-HT1A, 5-HT1B, and 5-HT1D subtypes, as well as the 5-HT2A, 5-HT2B, 5-HT2C, 5-HT4, 5-HT5, and 5-HT6 receptor subtypes. […]

[4] = biological target: T3, 5-HT1B (Homo sapiens, UniProt P28222); test: Radioligand binding assay, 5-HT1B subtype
T3 construct: expressed in transfected cells
T3 sequence (P28222 whole entry, species assumed): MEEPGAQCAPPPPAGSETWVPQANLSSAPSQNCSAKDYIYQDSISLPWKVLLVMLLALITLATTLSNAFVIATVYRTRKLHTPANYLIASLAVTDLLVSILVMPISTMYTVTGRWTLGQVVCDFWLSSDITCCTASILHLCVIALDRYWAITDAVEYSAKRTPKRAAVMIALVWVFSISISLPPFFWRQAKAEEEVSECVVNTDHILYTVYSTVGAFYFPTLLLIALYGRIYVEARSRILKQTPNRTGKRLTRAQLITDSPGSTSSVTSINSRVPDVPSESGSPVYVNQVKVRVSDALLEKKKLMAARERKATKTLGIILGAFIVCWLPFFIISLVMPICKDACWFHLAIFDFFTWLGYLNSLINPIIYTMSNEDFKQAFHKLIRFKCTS
Protocol: as §1, §2

[5] = biological target: T4, 5-HT1D (Homo sapiens, UniProt P28221); test: Radioligand binding assay, 5-HT1D subtype
T4 construct: expressed in transfected cells
T4 sequence (P28221 whole entry, species assumed): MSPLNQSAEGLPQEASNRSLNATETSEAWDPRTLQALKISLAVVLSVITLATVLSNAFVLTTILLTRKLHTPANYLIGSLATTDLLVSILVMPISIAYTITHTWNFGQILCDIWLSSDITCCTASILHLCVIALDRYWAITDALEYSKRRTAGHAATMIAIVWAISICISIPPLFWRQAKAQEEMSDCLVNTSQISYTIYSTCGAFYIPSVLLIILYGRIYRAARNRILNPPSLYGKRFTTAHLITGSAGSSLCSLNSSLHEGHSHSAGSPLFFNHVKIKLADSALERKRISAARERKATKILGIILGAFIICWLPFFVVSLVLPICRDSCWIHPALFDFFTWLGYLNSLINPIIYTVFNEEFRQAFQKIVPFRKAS
Protocol: as §1, §2

[6] = biological target: T5, 5-HT2A (Homo sapiens, UniProt P28223); test: Radioligand binding assay, 5-HT2A subtype
T5 construct: expressed in transfected cells
T5 sequence (P28223 whole entry, species assumed): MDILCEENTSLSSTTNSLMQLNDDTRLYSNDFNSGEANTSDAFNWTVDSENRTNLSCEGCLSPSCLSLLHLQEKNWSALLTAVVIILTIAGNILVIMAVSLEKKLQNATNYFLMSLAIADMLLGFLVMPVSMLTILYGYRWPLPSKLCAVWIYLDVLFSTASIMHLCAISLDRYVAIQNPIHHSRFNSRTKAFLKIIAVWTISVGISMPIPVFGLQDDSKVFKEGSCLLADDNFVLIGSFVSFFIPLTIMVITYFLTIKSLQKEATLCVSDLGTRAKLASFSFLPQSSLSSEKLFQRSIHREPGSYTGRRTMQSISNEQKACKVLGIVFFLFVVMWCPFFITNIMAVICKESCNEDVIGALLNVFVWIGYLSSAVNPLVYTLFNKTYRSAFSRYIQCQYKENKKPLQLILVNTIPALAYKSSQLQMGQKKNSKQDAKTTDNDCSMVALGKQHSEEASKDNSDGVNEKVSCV
Protocol: as §1, §2

[7] = biological target: T6, 5-HT2B (Homo sapiens, UniProt P41595); test: Radioligand binding assay, 5-HT2B subtype
T6 construct: expressed in transfected cells
T6 sequence (P41595 whole entry, species assumed): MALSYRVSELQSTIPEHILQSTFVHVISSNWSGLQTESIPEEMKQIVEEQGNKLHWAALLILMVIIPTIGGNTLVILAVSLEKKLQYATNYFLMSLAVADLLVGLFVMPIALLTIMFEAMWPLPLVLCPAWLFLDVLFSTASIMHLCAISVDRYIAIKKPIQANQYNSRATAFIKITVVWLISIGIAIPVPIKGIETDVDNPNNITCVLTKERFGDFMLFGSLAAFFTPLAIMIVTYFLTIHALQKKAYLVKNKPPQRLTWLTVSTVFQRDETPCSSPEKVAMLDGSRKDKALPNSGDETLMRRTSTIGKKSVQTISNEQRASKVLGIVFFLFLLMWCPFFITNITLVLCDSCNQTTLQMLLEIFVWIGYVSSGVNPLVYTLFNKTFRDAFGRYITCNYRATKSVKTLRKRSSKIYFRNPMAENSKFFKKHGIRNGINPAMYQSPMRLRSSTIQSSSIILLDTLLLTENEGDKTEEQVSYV
Protocol: as §1, §2

[8] = biological target: T7, 5-HT2C (Homo sapiens, UniProt P28335); test: Radioligand binding assay, 5-HT2C subtype
T7 construct: expressed in transfected cells
T7 sequence (P28335 33-458): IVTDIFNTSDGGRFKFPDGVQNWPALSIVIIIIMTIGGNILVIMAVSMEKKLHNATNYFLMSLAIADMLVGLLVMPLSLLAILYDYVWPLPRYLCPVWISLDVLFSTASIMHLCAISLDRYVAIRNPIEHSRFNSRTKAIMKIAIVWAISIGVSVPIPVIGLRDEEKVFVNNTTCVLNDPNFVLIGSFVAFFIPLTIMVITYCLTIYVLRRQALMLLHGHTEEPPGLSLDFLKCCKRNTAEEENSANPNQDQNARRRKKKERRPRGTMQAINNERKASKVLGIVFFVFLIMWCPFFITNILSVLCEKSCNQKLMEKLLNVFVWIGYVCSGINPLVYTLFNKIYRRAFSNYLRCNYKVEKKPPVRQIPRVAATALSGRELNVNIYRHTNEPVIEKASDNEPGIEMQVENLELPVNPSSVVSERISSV
Protocol: as §1, §2

[9] = biological target: T8, 5-HT4 (Homo sapiens, UniProt Q13639); test: Radioligand binding assay, 5-HT4 subtype
T8 construct: expressed in transfected cells
T8 sequence (Q13639 whole entry, species assumed): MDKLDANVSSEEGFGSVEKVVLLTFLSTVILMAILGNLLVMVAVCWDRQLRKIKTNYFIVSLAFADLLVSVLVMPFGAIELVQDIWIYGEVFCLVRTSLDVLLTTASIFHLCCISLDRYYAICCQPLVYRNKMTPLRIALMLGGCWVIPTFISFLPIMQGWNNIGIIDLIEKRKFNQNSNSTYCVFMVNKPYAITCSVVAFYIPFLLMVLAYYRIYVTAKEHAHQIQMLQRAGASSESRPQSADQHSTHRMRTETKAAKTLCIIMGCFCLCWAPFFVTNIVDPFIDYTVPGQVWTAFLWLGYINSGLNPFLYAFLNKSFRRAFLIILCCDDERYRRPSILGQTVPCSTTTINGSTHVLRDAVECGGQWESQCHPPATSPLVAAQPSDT
Protocol: as §1, §2

[10] = biological target: T9, 5-HT5 (Homo sapiens, UniProt P47898); test: Radioligand binding assay, 5-HT5 subtype
T9 construct: expressed in transfected cells
T9 sequence (P47898 whole entry, species assumed): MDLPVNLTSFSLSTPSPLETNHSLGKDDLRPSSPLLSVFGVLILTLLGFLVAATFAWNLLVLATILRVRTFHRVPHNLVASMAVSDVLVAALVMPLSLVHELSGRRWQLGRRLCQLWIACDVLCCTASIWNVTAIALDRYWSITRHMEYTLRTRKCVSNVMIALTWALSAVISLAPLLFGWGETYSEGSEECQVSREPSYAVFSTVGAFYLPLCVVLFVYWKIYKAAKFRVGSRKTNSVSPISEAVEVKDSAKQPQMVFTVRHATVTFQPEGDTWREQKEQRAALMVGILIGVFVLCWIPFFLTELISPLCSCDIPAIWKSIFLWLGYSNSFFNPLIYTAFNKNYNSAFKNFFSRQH
Protocol: as §1, §2

[11] = biological target: T10, 5-HT6 (Homo sapiens, UniProt P50406); test: Radioligand binding assay, 5-HT6 subtype
T10 construct: expressed in transfected cells
T10 sequence (P50406 whole entry, species assumed): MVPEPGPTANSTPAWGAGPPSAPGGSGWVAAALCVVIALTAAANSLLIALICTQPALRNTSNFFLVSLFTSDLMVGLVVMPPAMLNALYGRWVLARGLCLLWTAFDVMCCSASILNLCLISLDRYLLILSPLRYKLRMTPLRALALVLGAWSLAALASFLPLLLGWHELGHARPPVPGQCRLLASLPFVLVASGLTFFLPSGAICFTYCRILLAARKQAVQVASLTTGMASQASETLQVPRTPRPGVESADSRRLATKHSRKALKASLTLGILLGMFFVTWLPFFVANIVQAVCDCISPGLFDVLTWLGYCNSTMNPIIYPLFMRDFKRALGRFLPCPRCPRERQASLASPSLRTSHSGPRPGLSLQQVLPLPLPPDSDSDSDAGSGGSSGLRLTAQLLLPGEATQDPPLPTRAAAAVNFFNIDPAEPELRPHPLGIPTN
Protocol: as §1, §2

[12] = biological target: alpha 1 adrenergic; test: Radioligand binding assay, alpha 1 adrenergic
Protocol: as §1, §2

[13] = biological target: alpha 2 adrenergic; test: Radioligand binding assay, alpha 2 adrenergic
Protocol: as §1, §2

[14] = test system: male Harlan Sprague-Dawley rats; test: Animal model of dural plasma protein extravasation (PPE); type: in vivo, rat
Text: The dural plasma protein extravasation model is an established model for migraine. The ability of a test compound to reduce extravasation of plasma proteins into the dura under assay conditions is considered indicative of the compound's ability to reduce or prevent the dural inflammation thought to be symptomatic of migraine. (see Johnson, K. W., et al., Neuroreport, 8 (1997) 2237-2240.)
To assay compounds for their ability to reduce or prevent dural plasma protein extravasation, male Harlan Sprague-Dawley rats (250-350 g) are anesthetized with sodium pentobarbital (65 mg/kg, i.p.) and placed in a stereotaxic frame (David Kopf Instruments) with the incisor bar set at −2.5 mm. Following a midline sagittal scalp incision, 2 pairs of bilateral holes are drilled through the skull (3.2 mm posterially, 1.8 and 3.8 mm laterally, all coordinates referenced to bregma). […]
The amount of FITC-BSA for each sample is quantified with a fluorescence microscope (Zeiss) equipped with a grating monochromator, a spectrophotometer, and a computer driven stage. Fluorescence measurements are taken at 25 points in a 5×5 grid in 500 μm steps on each dural sample with an excitation wavelength of approximately 490 nm and emission intensity measured at approximately 535 nm. The mean and standard deviation of the 25 measurements are determined. […]

Row | inhibition [1] | Structure (SMILES) | antagonist character [1] | Kb [1] [nM] | Ki [2] | Ki [3] [nM] | Ki [4] [nM] | Ki [5] [nM] | Ki [6] [nM] | Ki [7] [nM] | Ki [8] [nM] | Ki [9] [nM] | Ki [10] [nM] | Ki [11] [nM] | Ki [12] [nM] | Ki [13] [nM] | ratio of extravasation, stimulated side over unstimulated side ([14]; at ID100 of 1 mg/Kg, saline controls about 2.0) | ID100 ([14]; rat dural plasma protein extravasation, route not given) [mg/kg]
1 | about 128% | CN(CCN1CCN(c2nccnc2-c2ccc(F)cc2)CC1)S(=O)(=O)c1ccc(F)cc1.Cl [Example 4, 4-Fluoro-N-{2-[3′-(4-fluoro-phenyl)-2,3,5,6-tetrahydro-[1,2′]bipyrazinyl-4-yl]-ethyl}-N-methyl-benzenesulfonamide hydrochloride] | full antagonists | ~24 |  |  |  |  |  |  |  |  |  |  |  |  |  | 
2 |  | CN(CCN1CCN(c2nccnc2-c2ccc(F)cc2)CC1)S(=O)(=O)c1cn(C)cn1 [Example 17, 1-Methyl-1H-imidazole-4-sulfonic acid {2-[3′-(4-fluoro-phenyl)-2,3,5,6-tetrahydro-[1,2′]bipyrazinyl-4-yl]-ethyl}-methyl-amide hydrochloride] |  |  | ~33.5 nM and 33.5 nM | 1500 | > 3580 | > 2320 | > 7470 | > 6810 | > 8360 | > 6310 | > 6710 | > 5830 | > 1770 | > 2430 |  | 
3 |  | COCc1ccc(-c2nccnc2N2CCN(CCN(C)S(=O)(=O)c3cnn(C)c3)CC2)cc1.Cl [Example 25, 1-Methyl-1H-pyrazole-4-sulfonic acid {2-[3′-(4-methoxymethyl-phenyl)-2,3,5,6-tetrahydro-[1,2′]bipyrazinyl-4-yl]-ethyl}-methyl-amide hydrochloride] | full antagonists | ~8.5 | ~19.4 nM and 19.4 nM | 2070 | 3240 | 1270 | > 7470 | > 6810 | > 8360 | > 4120 | 3320 | > 5830 | 2330 | > 5290 | about 1.1 | 1
